Data reported in ChEMBL document CHEMBL2434948, “Discovery, synthesis, and characterization of an orally bioavailable, brain penetrant inhibitor of mixed lineage kinase 3” (J Med Chem, 2013).
The source made the active and inactive calls. No cut-off for these calls is given here.

What was measured:
[1] = molecular target: RAC-gamma serine/threonine-protein kinase (Homo sapiens) (UniProt Q9Y243); experiment: Inhibition of human wild type AKT3 at 1 uM by qPCR analysis
[2] = molecular target: BDNF/NT-3 growth factors receptor (Homo sapiens, UniProt Q16620)
Description: Inhibition of wild type human TRKB by high throughput ATP-[33P] radiolabeled assay

in vivo = conditions: C57BL/6, mouse, po, 10 mg/kg
[3] = molecular target: T1, Mitogen-activated protein kinase 8 (Homo sapiens, UniProt P45983); experiment: Inhibition of human wild type JNK1 at 1 uM by qPCR analysis relative to control
[4] = molecular target: Leucine-rich repeat serine/threonine-protein kinase 2 (Homo sapiens, UniProt Q5S007)
Description: Inhibition of human wild type LRRK2 by qPCR analysis

[5] = molecular target: Cyclin-dependent kinase 4 (Homo sapiens) (UniProt P11802); experiment: Inhibition of human wild type CDK4 at 1 uM by qPCR analysis relative to control
[6] = molecular target: SRSF protein kinase 2 (Homo sapiens) (UniProt P78362); experiment: Inhibition of human wild type SRPK2 at 1 uM by qPCR analysis relative to control
[7] = molecular target: T1, Mitogen-activated protein kinase 8
Description: Inhibition of wild type human JNK1 by high throughput [33P]-ATP radiolabeled assay

[8] = molecular target: Mitogen-activated protein kinase 14 (Homo sapiens, UniProt Q16539)
Description: Inhibition of wild type human P38a by high throughput ATP-[33P] radiolabeled assay

[9] = molecular target: Mitogen-activated protein kinase 3 (Homo sapiens) (UniProt P27361); experiment: Inhibition of human wild type ERK1 at 1 uM by qPCR analysis
[10] = molecular target: Vascular endothelial growth factor receptor 1 (Homo sapiens, UniProt P17948)
Description: Inhibition of wild type human FLT1 by high throughput ATP-[33P] radiolabeled assay

[11] = molecular target: T2, Mitogen-activated protein kinase kinase kinase 11 (Homo sapiens, UniProt Q16584)
Description: Inhibition of MLK3 (unknown origin) after 20 mins by scintillation counting analysis in presence of [33P]-ATP

[12] = molecular target: Maternal embryonic leucine zipper kinase (Homo sapiens) (UniProt Q14680); experiment: Inhibition of human wild type MELK at 1 uM by qPCR analysis relative to control
[13] = molecular target: Protein delta homolog 1 (Homo sapiens) (UniProt P80370); experiment: Inhibition of human wild type DLK at 1 uM by qPCR analysis relative to control
[14] = molecular target: RAC-alpha serine/threonine-protein kinase (Homo sapiens) (UniProt P31749); experiment: Inhibition of human wild type AKT1 at 1 uM by qPCR analysis
[15] = molecular target: Mitogen-activated protein kinase 12 (Homo sapiens) (UniProt P53778); experiment: Inhibition of human wild type p38g at 1 uM by qPCR analysis
[16] = molecular target: T3, Rho-associated protein kinase 1 (Homo sapiens, UniProt Q13464)
Description: Inhibition of wild type human ROCK1 by high throughput ATP-[33P] radiolabeled assay

[17] = molecular target: TRAF2 and NCK-interacting protein kinase (Homo sapiens) (UniProt Q9UKE5); experiment: Binding affinity to human wild type TNIK at 1 uM by qPCR analysis
[18] = molecular target: T3, Rho-associated protein kinase 1; conditions: 1 uM
Target sequence in this assay (Q13464 2-1354 limits assumed): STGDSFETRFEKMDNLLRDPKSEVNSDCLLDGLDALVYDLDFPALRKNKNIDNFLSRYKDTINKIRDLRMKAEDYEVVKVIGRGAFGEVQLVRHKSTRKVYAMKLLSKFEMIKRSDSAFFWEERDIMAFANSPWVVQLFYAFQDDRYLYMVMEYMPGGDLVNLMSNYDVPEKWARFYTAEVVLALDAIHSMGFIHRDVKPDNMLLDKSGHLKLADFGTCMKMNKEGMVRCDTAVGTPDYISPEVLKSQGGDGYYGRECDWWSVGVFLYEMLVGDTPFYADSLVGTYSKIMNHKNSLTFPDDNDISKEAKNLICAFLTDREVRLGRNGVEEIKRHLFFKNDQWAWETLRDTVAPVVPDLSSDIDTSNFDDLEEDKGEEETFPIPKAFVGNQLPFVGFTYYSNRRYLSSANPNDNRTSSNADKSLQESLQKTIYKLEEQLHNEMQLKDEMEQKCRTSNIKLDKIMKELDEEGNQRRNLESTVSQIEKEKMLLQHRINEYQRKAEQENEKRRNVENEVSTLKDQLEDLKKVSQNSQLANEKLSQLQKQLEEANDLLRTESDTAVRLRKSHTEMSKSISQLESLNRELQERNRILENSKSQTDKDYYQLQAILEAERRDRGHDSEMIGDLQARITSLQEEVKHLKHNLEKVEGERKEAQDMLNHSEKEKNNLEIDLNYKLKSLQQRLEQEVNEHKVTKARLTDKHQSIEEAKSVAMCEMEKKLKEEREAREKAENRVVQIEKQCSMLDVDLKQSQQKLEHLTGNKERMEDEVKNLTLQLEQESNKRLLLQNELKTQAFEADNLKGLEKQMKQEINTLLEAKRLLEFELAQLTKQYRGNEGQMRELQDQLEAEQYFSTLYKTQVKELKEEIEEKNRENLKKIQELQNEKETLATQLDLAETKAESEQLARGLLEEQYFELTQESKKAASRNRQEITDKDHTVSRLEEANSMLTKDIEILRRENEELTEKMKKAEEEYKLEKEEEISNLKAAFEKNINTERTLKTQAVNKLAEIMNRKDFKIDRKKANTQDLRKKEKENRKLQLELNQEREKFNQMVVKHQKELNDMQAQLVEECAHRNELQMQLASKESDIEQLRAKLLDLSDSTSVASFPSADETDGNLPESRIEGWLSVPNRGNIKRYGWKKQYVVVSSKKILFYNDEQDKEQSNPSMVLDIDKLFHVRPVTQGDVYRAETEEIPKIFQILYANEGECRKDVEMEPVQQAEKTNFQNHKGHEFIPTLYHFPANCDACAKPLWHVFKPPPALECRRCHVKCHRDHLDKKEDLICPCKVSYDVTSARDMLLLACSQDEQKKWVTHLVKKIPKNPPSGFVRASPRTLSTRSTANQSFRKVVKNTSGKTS
Description: Inhibition of human wild type ROCK1 at 1 uM by qPCR analysis relative to control

[19] = molecular target: Tyrosine-protein kinase ABL1 (Homo sapiens, UniProt P00519)
Description: Inhibition of wild type human ABL1 by high throughput ATP-[33P] radiolabeled assay

[20] = molecular target: Proto-oncogene tyrosine-protein kinase Src (Homo sapiens, UniProt P12931)
Description: Inhibition of wild type human SRC by high throughput ATP-[33P] radiolabeled assay

[21] = molecular target: Mitogen-activated protein kinase kinase kinase 11 (Mus musculus, UniProt Q80XI6)
[22] = molecular target: Mitogen-activated protein kinase 1 (Homo sapiens, UniProt P28482); experiment: Inhibition of human wild type ERK2 at 1 uM by qPCR analysis
[23] = molecular target: Tyrosine-protein kinase SYK (Homo sapiens, UniProt P43405)
Description: Inhibition of wild type human SYK by high throughput ATP-[33P] radiolabeled assay

[24] = molecular target: Dual specificity protein kinase CLK4 (Homo sapiens) (UniProt Q9HAZ1); experiment: Inhibition of human wild type CLK4 at 1 uM by qPCR analysis relative to control
[25] = molecular target: Cyclin-dependent kinase 1 (Homo sapiens, UniProt P06493)
Description: Inhibition of wild type human CDK1 by high throughput ATP-[33P] radiolabeled assay

[26] = molecular target: Ribosomal protein S6 kinase alpha-6 (Homo sapiens) (UniProt Q9UK32); experiment: Inhibition of human wild type RSK4 at 1 uM by qPCR analysis
[27] = molecular target: Cyclin-dependent kinase-like 2 (Homo sapiens) (UniProt Q92772); experiment: Inhibition of human wild type CDKL2 at 1 uM by qPCR analysis relative to control
[28] = molecular target: Glycogen synthase kinase-3 beta (Homo sapiens, UniProt P49841)
Description: Inhibition of wild type human GSK3B by high throughput ATP-[33P] radiolabeled assay

[29] = molecular target: Platelet-derived growth factor receptor beta (Homo sapiens) (UniProt P09619); experiment: Inhibition of human wild type PDGFRB at 1 uM by qPCR analysis relative to control
[30] = molecular target: T2, Mitogen-activated protein kinase kinase kinase 11; conditions: 300 nM
Cytochrome P450 2C9 = Cytochrome P450 2C9 (Homo sapiens, UniProt P11712)
Description: Inhibition of CYP2C9 in human liver microsomes assessed as inhibition of midazolam metabolism by HPLC/MS analysis

[31] = molecular target: Receptor-type tyrosine-protein kinase FLT3 (Homo sapiens) (UniProt P36888); experiment: Inhibition of human wild type FLT3 at 1 uM by qPCR analysis relative to control
Brain = experiment: Drug uptake in C57BL/6 mouse brain at 10 mg/kg, iv measured over 6 hrs; type: ADME, organism-based; parameters: dose 10 mg/kg, route intravenous; conditions: in vivo
[32] = molecular target: Tyrosine-protein kinase Lck (Homo sapiens, UniProt P06239)
Description: Inhibition of wild type human LCK by high throughput ATP-[33P] radiolabeled assay

[33] = molecular target: Serine/threonine-protein kinase Sgk1 (Homo sapiens) (UniProt O00141); experiment: Inhibition of human wild type SGK1 at 1 uM by qPCR analysis relative to control
[34] = molecular target: Serine/threonine-protein kinase MARK2 (Homo sapiens) (UniProt Q7KZI7); experiment: Inhibition of human wild type MARK2 at 1 uM by qPCR analysis relative to control

T1 sequence (P45983 whole entry): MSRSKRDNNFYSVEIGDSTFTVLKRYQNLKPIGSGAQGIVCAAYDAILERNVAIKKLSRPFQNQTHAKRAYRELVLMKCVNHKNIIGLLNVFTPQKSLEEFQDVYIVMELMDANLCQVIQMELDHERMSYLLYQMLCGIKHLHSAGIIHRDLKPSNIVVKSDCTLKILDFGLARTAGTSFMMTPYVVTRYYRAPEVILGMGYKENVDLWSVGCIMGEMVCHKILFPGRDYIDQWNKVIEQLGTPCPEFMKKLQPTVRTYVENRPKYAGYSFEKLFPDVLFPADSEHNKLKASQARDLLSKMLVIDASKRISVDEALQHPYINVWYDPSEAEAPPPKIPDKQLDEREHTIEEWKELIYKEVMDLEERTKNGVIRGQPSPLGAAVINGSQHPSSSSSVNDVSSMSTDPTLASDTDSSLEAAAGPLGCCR
Sequence of Mitogen-activated protein kinase 14 (Q16539 whole entry): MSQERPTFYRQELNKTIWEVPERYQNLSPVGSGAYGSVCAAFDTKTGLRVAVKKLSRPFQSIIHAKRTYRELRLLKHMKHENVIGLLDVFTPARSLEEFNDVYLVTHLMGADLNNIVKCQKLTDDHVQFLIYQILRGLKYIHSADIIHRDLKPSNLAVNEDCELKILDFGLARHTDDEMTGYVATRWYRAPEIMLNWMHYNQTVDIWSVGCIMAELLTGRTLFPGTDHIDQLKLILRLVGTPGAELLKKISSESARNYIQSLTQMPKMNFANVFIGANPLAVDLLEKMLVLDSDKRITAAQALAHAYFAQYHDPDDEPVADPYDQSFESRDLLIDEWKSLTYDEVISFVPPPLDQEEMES
Sequence of Vascular endothelial growth factor receptor 1 (P17948 whole entry): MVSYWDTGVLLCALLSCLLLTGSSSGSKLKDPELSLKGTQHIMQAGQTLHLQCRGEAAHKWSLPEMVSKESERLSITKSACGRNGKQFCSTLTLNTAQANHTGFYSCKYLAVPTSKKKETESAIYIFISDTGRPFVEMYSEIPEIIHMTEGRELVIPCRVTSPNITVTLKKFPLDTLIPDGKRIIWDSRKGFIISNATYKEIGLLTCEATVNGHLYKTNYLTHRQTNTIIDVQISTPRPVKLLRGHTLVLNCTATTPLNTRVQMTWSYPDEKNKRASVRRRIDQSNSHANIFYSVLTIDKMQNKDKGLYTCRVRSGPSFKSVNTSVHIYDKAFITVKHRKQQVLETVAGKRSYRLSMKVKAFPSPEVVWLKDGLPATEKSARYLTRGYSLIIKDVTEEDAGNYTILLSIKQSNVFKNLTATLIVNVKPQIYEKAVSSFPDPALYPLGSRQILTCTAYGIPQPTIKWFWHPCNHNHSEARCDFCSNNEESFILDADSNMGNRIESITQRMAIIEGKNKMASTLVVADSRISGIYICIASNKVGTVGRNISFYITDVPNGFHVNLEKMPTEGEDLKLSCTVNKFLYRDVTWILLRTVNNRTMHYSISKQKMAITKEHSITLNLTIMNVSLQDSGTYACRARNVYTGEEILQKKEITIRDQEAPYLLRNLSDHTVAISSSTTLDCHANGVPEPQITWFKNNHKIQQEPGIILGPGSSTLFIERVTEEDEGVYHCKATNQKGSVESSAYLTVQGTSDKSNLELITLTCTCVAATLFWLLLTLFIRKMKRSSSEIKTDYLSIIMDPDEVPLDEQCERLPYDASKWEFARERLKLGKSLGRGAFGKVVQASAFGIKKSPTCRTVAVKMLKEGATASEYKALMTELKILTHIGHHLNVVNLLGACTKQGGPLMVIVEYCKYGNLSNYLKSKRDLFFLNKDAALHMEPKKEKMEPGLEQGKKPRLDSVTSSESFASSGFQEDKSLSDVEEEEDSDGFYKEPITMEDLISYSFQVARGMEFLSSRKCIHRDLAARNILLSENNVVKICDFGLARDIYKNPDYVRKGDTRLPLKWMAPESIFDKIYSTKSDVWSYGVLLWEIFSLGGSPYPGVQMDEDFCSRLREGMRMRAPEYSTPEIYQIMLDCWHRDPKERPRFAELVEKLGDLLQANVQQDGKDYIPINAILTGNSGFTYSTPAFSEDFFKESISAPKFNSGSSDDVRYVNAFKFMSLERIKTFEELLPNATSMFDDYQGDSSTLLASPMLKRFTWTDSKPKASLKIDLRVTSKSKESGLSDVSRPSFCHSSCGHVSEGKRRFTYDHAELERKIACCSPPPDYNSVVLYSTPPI
Sequence of Protein delta homolog 1 (Homo sapiens) (P80370 whole entry): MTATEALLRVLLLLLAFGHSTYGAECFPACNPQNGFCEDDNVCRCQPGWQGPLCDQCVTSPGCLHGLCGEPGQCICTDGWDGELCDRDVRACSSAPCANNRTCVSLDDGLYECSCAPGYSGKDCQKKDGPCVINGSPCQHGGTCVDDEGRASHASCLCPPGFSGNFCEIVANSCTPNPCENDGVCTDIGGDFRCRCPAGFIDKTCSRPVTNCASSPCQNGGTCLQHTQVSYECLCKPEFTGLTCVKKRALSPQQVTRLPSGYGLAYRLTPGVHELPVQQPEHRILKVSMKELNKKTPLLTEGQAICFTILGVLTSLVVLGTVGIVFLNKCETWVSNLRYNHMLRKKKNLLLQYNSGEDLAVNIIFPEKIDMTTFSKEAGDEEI
Sequence of Maternal embryonic leucine zipper kinase (Homo sapiens) (Q14680 whole entry, looked up): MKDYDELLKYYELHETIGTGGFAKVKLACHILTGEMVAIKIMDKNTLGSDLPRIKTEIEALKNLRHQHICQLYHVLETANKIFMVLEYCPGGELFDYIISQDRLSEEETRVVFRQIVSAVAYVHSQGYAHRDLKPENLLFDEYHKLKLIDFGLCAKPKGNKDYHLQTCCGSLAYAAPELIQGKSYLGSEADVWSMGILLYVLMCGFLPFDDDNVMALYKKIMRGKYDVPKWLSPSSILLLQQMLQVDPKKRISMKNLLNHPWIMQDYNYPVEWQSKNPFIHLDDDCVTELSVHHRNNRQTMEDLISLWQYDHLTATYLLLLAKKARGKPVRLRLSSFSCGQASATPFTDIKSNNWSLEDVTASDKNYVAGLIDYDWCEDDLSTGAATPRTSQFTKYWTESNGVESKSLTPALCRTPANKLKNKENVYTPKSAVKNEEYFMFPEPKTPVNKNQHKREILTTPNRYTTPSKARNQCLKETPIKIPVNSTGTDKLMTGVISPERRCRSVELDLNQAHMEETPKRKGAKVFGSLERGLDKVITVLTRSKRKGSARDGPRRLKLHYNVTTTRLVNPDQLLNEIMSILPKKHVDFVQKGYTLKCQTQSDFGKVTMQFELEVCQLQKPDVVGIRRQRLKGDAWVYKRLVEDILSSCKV
Sequence of Dual specificity protein kinase CLK4 (Homo sapiens) (Q9HAZ1 whole entry, looked up): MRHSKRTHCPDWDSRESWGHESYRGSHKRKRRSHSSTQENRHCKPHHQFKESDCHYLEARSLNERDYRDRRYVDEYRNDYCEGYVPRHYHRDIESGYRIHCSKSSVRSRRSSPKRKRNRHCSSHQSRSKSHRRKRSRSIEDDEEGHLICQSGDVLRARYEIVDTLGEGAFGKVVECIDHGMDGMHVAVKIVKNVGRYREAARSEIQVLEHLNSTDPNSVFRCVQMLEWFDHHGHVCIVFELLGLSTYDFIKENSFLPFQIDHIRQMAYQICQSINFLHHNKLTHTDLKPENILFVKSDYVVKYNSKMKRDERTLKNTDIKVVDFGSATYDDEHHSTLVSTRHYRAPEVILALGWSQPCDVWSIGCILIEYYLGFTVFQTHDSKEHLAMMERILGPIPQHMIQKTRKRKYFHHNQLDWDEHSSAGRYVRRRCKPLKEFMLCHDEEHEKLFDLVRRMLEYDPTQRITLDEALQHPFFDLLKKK

CN1CCN(Cc2ccc(-c3cnc4[nH]cc(-c5ccc6[nH]ccc6c5)c4c3)cc2)CC1
inhibition [1]: inactive
IC50 [2]: 0.217 µM
Tmax (in vivo): 4 h
inhibition [3]: 99%
IC50 [4]: 0.011 µM
inhibition [5]: > 90%
inhibition [6]: > 90%
IC50 [7]: 3.2 µM
IC50 [8]: 12 µM
inhibition [9]: inactive
IC50 [10]: 0.039 µM
IC50 [11]: 0.014 µM
inhibition [12]: > 90%
inhibition [13]: 88%
inhibition [14]: inactive
inhibition [15]: inactive
IC50 [16]: 1.03 µM
inhibition [17]: Active
inhibition [18]: > 90%
IC50 [19]: 0.0068 µM
IC50 [20]: 4.33 µM
IC50 [21]: 0.46 µM
inhibition [22]: inactive
IC50 [23]: 0.731 µM
inhibition [24]: > 90%
IC50 [25]: 1.13 µM
inhibition [26]: inactive
inhibition [27]: > 90%
IC50 [28]: > 10 µM
inhibition [29]: > 90%
inhibition [30]: > 50%
IC50 (Cytochrome P450 2C9): > 30 µM
inhibition [31]: > 90%
Drug uptake (Brain): Active
IC50 [32]: 0.333 µM
inhibition [33]: 70%
inhibition [34]: 49%
